Results taken from publication PMC5552351, “Bacteriological profiling of diphenylureas as a novel class of antibiotics against methicillin-resistant Staphylococcus aureus” (PLoS ONE, 2017).
Values after ≈ are worked out from the molar mass of the structure shown.

Assays:
MRSA NRS123 (USA400) = assay: broth microdilution MIC/MBC; assay type: cell-based; conditions: Staphylococcus aureus, MRSA NRS123 (USA400); for MBC: read-out: MBC; for MIC: read-out: MIC
Experimental: (§1) The broth microdilution assay was employed to determine the MIC of compounds 1, 2, and vancomycin against five MRSA strains, four VRSA strains, one highly mupirocin-resistant S. aureus strain, one biofilm-forming S. aureus (ATCC 6538) strain, and one biofilm-forming methicillin-resistant S. epidermidis strain, as per the guidelines of the Clinical and Laboratory Standards Institute (CLSI). […] The MBC was determined by plating an aliquot (5 μL) from wells with no growth onto TSA plates. Plates were incubated at 37 °C for 19 hours before recording the MBC (concentration where no growth was observed on TSA plates).

MRSA NRS384 (USA300) = assay: broth microdilution MIC/MBC; assay type: cell-based; conditions: Staphylococcus aureus, MRSA NRS384 (USA300); for MBC: read-out: MBC; for MIC: read-out: MIC
Experimental: as §1

MRSA NRS387 (USA800) = assay: broth microdilution MIC/MBC; assay type: cell-based; conditions: Staphylococcus aureus, MRSA NRS387 (USA800); for MBC: read-out: MBC; for MIC: read-out: MIC
Experimental: as §1

MRSA NRS483 (USA1000) = assay: broth microdilution MIC/MBC; assay type: cell-based; conditions: Staphylococcus aureus, MRSA NRS483 (USA1000); for MBC: read-out: MBC; for MIC: read-out: MIC
Experimental: as §1

MRSA NRS484 (USA1100) = assay: broth microdilution MIC/MBC; assay type: cell-based; conditions: Staphylococcus aureus, MRSA NRS484 (USA1100); for MBC: read-out: MBC; for MIC: read-out: MIC
Experimental: as §1

S. aureus NRS107 = assay: broth microdilution MIC/MBC; assay type: cell-based; conditions: Staphylococcus aureus, S. aureus NRS107; for MBC: read-out: MBC; for MIC: read-out: MIC
Experimental: as §1

VRS10 = assay: broth microdilution MIC/MBC; assay type: cell-based; conditions: Staphylococcus aureus, VRS10, vancomycin-resistant S. aureus; for MBC: read-out: MBC; for MIC: read-out: MIC
Experimental: as §1

VRS11a = assay: broth microdilution MIC/MBC; assay type: cell-based; conditions: Staphylococcus aureus, VRS11a, vancomycin-resistant S. aureus; for MBC: read-out: MBC; for MIC: read-out: MIC
Experimental: as §1

VRS4 = assay: broth microdilution MIC/MBC; assay type: cell-based; conditions: Staphylococcus aureus, VRS4, vancomycin-resistant S. aureus; for MBC: read-out: MBC; for MIC: read-out: MIC
Experimental: as §1

VRS7 = assay: broth microdilution MIC/MBC; assay type: cell-based; conditions: Staphylococcus aureus, VRS7, vancomycin-resistant S. aureus; for MBC: read-out: MBC; for MIC: read-out: MIC
Experimental: as §1

S. aureus ATCC 6538 = assay: broth microdilution MIC; assay type: cell-based; conditions: Staphylococcus aureus, ATCC6538; S. aureus ATCC 6538, biofilm-forming strain; read-out: MIC
Experimental: as §1

S. epidermidis NRS101 = assay: broth microdilution MIC; assay type: cell-based; conditions: Staphylococcus epidermidis; S. epidermidis NRS101, biofilm-forming strain; read-out: MIC
Experimental: as §1

[1] = tested on: clinically-relevant strains of MRSA and VRSA; assay: broth microdilution MIC/MBC, panel summary; assay type: cell-based; conditions: Staphylococcus aureus, summary over the MRSA isolates of Table 1; read-out: concentration inhibiting growth of MRSA isolates (MIC)
Experimental: as §1

MRSA USA300 (NRS384) = assay: time-kill assay; assay type: cell-based, Staphylococcus aureus; conditions: 4 × MIC; for reduction of MRSA CFU/mL: within two hours
[2] = tested on: human epithelial colorectal (Caco-2) cell line; assay: MTS cytotoxicity assay; assay type: cell-based; conditions: Caco-2, MTS assay, highest concentration tested
Experimental: Compounds 1 and 2 were assayed (at concentrations of 16 μg/mL, 32 μg/mL, 64 µg/mL, and 128 μg/mL) against a human epithelial colorectal (Caco-2) cell line (American Type Culture Collection, ATCC HTB-37) using the MTS assay. Cells were cultured in DMEM supplemented with penicillin-streptomycin, nonessential amino acids (1%), and FBS (10%), at 37 °C with CO2 (5%). The cells were incubated with compounds (in triplicate) or DMSO (negative control) in a 96-well tissue culture-treated plate at 37 °C with CO2 (5%) for two hours. The MTS assay reagent (Promega, Madison, WI, USA) was subsequently added to each well and plates were incubated for four hours at 37 °C with CO2 (5%). The quantity of viable cells (at OD490) after treatment was expressed as a percentage of the viability of DMSO-treated control cells (average of triplicate wells ± standard deviation). The toxicity data was analyzed via a two-way ANOVA, with post hoc Dunnet’s multiple comparisons test (n = 3, P < 0.05), utilizing GraphPad Prism 6.0 (GraphPad Software, La Jolla, CA).

MRSA USA400 (NRS123) [3] = assay: multi-step resistance selection; assay type: cell-based, Staphylococcus aureus; conditions: for increase in MIC after fourteen passages: MRSA USA400 (NRS123), fourteen passages over two weeks
Experimental: To assess MRSA’s ability to develop resistance to the diphenylurea compounds after repeated exposure, a multi-step resistance selection experiment was conducted. […] Resistance was classified as a greater than four-fold increase in the initial MIC, as reported elsewhere.

MRSA USA400 (NRS123) [4] = assay: MIC in presence and absence of human serum albumin; assay type: cell-based, Staphylococcus aureus; conditions: for increase in MIC in the presence of HSA: MRSA USA400, 4% human serum albumin vs none; for MIC: Staphylococcus aureus, TSB
Experimental: The broth microdilution assay presented above was used to assess if compounds 1 and 2 bind to a major component of blood (human serum albumin) thus limiting the free fraction of drug available to exert its antibacterial effect. […] CaCl2 ([…]) was added to wells containing daptomycin, per the CLSI guidelines.

[5] = aqueous solubility assessment (turbidity); assay type: physicochemical; conditions: aqueous buffer, kinetic from dmso stock
Experimental: The solutions were diluted 100-fold into PBS in a 96-well plate and mixed. The absorbance of the PBS-containing plate was measured prior to addition of the test agents to determine the background absorbance. After two hours, the presence of precipitate was detected by turbidity (absorbance at 540 nm). […] The solubility limit is reported as the highest experimental concentration with no evidence of turbidity.

[6] = 4% human serum albumin, read-out: MIC vs. MRSA USA400 (+HSA)
[7] = without human serum albumin, read-out: MIC vs. MRSA USA400 (-HSA)

SMILES	MBC (MRSA NRS123 (USA400)) [µg/mL]	MIC (MRSA NRS123 (USA400)) [µg/mL]	MBC (MRSA NRS384 (USA300)) [µg/mL]	MIC (MRSA NRS384 (USA300)) [µg/mL]	MBC (MRSA NRS387 (USA800)) [µg/mL]	MIC (MRSA NRS387 (USA800)) [µg/mL]	MBC (MRSA NRS483 (USA1000)) [µg/mL]	MIC (MRSA NRS483 (USA1000)) [µg/mL]	MBC (MRSA NRS484 (USA1100)) [µg/mL]	MIC (MRSA NRS484 (USA1100)) [µg/mL]	MBC (S. aureus NRS107) [µg/mL]	MIC (S. aureus NRS107) [µg/mL]	MBC (VRS10) [µg/mL]	MIC (VRS10) [µg/mL]	MBC (VRS11a) [µg/mL]	MIC (VRS11a) [µg/mL]	MBC (VRS4) [µg/mL]	MIC (VRS4) [µg/mL]	MBC (VRS7) [µg/mL]	MIC (VRS7) [µg/mL]	other results
C/C(=N\NC(=N)N)c1ccc(NC(=O)Nc2ccc(OC3CCCCCC3)cc2)cc1 [compound 2]	8 (≈ 18.9 µM)	8 (≈ 18.9 µM)	16 (≈ 37.9 µM)	8 (≈ 18.9 µM)	16 (≈ 37.9 µM)	8 (≈ 18.9 µM)	16 (≈ 37.9 µM)	16 (≈ 37.9 µM)	16 (≈ 37.9 µM)	16 (≈ 37.9 µM)	8 (≈ 18.9 µM)	8 (≈ 18.9 µM)	8 (≈ 18.9 µM)	4 (≈ 9.47 µM)	8 (≈ 18.9 µM)	8 (≈ 18.9 µM)	16 (≈ 37.9 µM)	16 (≈ 37.9 µM)	16 (≈ 37.9 µM)	16 (≈ 37.9 µM)	MIC (S. aureus ATCC 6538): 8 µg/mL (≈ 18.9 µM); MIC (S. epidermidis NRS101): 4 µg/mL (≈ 9.47 µM); MIC [1]: ≥ 4 µg/mL; time to completely eradicate a high inoculum of MRSA (~10^6 CFU/mL) (MRSA USA300 (NRS384)): within four hours; reduction of MRSA CFU/mL (MRSA USA300 (NRS384)): 3 log10; non-toxic up to (concentration) [2]: ≥ 128 µg/mL; increase in MIC after fourteen passages (MRSA USA400 (NRS123) [3]): No increase; increase in MIC in the presence of HSA (MRSA USA400 (NRS123) [4]): 15 fold; MIC (MRSA USA400 (NRS123) [4]; [6]): 128 µg/mL (≈ 303 µM); MIC (MRSA USA400 (NRS123) [4]; [7]): 8 µg/mL (≈ 18.9 µM); solubility at 2 h [5]: 5.15 µg/mL (≈ 12.2 µM)
C/C(=N\NC(=N)N)c1ccc(NC(=O)Nc2ccc(OCCC(C)C)cc2)cc1 [compound 1]	4 (≈ 10.1 µM)	4 (≈ 10.1 µM)	4 (≈ 10.1 µM)	4 (≈ 10.1 µM)	4 (≈ 10.1 µM)	4 (≈ 10.1 µM)	4 (≈ 10.1 µM)	4 (≈ 10.1 µM)	8 (≈ 20.2 µM)	8 (≈ 20.2 µM)	4 (≈ 10.1 µM)	4 (≈ 10.1 µM)	4 (≈ 10.1 µM)	4 (≈ 10.1 µM)	4 (≈ 10.1 µM)	4 (≈ 10.1 µM)	8 (≈ 20.2 µM)	8 (≈ 20.2 µM)	8 (≈ 20.2 µM)	8 (≈ 20.2 µM)	MIC (S. aureus ATCC 6538): 4 µg/mL (≈ 10.1 µM); MIC (S. epidermidis NRS101): 2 µg/mL (≈ 5.04 µM); MIC [1]: ≥ 4 µg/mL; time to completely eradicate a high inoculum of MRSA (~10^6 CFU/mL) (MRSA USA300 (NRS384)): within four hours; reduction of MRSA CFU/mL (MRSA USA300 (NRS384)): 3 log10; non-toxic up to (concentration) [2]: ≥ 128 µg/mL; increase in MIC after fourteen passages (MRSA USA400 (NRS123) [3]): No increase; MIC (MRSA USA400 (NRS123) [3]; Staphylococcus aureus, read-out: initial MIC): 8 µg/mL (≈ 20.2 µM); increase in MIC in the presence of HSA (MRSA USA400 (NRS123) [4]): seven-fold; MIC (MRSA USA400 (NRS123) [4]; [6]): 32 µg/mL (≈ 80.7 µM); MIC (MRSA USA400 (NRS123) [4]; [7]): 4 µg/mL (≈ 10.1 µM); solubility at 2 h [5]: 23.9 µg/mL (≈ 60.4 µM)
